Results reported in patent EP4799624A2 (priority 2021, dated 2023).
≈ marks a conversion by molar mass, not a printed value. Where two headings read alike, the source gives them in different places.

Experiments:
SARS-CoV-2 [1] = settings: Day 4, cited from earlier work
SARS-CoV-2/WA1 = assay type: cell-based, SARS-CoV-2 isolate USA-WA1/2020; settings: Severe acute respiratory syndrome coronavirus 2, HeLa-ACE2, read-out: SARS-CoV-2 IC50 value
A/WSN/33 = assay: Influenza antiviral assay (IF-based) in A549 cells; assay type: cell-based, H1N1 influenza A virus; settings: Influenza A virus, A549, 24 h
SARS-CoV-2 [2] = settings: for activity in the HeLa-ACE2 cell-based SARS-CoV-2 assay: 35 ActivPred compounds tested; for Nh (Hill) coefficient: dose curves fitted with the four parameter Hill Equation
[3] = for adverse reactions / clinical signs: PO 50 and 250 mg/kg, single and 5 days, female 129S1 mice; for Mean: mean of 3 mice (± SD in Table 16); for AUC∞: extrapolated to ∞
[4] = rat, in vivo
COVID-19 = settings: ReFRAME study A00473; cited from earlier work
SARS-CoV-2 [5] = settings: cited from earlier work
in vivo = settings: rat, po, 1000 mg/kg
[6] = single oral doses 1-200 mg; cited from earlier work
[7] = range for all doses (10-200 mg), human plasma, cited from earlier work
[8] = ReFRAME study A00511; cited from earlier work
[9] = rat and monkey studies; cited from earlier work
[10] = human liver slices and microsomes; cited from earlier work
[11] = values compared in Example 2; cited from earlier work
[12] = in vivo, cited from earlier work
SARS-CoV-2 [13] = assay: microbe, parasite or virus in culture
SARS-CoV-2 [14] = settings: same methods as used in this study; cited from earlier work
Ebola VLP entry = settings: cited from earlier work
[15] = lung, 250 mg/kg PO five consecutive days (Group 2, MD)
[16] = plasma, 50 mg/kg PO five consecutive days (Group 1, MD)
[17] = plasma, 50 mg/kg PO single dose (Group 1, SD)
[18] = plasma, 50 mg/kg PO single dose (Group 1, SD), 50 mg/kg
[19] = plasma, 250 mg/kg PO five consecutive days (Group 2, MD)
[20] = plasma, 250 mg/kg PO single dose (Group 2, SD)
[21] = Severe acute respiratory syndrome coronavirus 2, HeLa-ACE2, 24 h

For CC(C)(C)[C@H](NC(=O)C(F)(F)F)C(=O)N1C[C@H]2[C@@H]([C@H]1C(=O)N[C@H](C#N)C[C@@H]1CCNC1=O)C2(C)C [Nirmatrelvir], the “log reduction in viral load” value (SARS-CoV-2 [1]; 300 mg/kg) is given as 1.4 log, the “reduction in viral load” value (SARS-CoV-2 [1]; 1000 mg/kg BID) is given as 1.91 log10 CCID50/mL and the “log reduction in viral load” value (SARS-CoV-2 [1]; 1000 mg/kg) is given as 1.9 log.

In the case of Cc1c(-c2ccc(O)cc2)n(Cc2ccc(OCCN3CCCCC3)cc2)c2ccc(O)cc12 [Pipendoxifene, 2-(4-hydroxyphenyl)-3-methyl-1-[[4-(2-piperidin-1-ylethoxy)phenyl]methyl]indol-5-ol], the IC50 (SARS-CoV-2/WA1) is reported as 0.328 µg/mL (≈ 0.718 µM), the IC50 (A/WSN/33) is reported as 7.49 µM and the EC50 (SARS-CoV-2 [2]) is reported as 8.24 µM. The “activity in the HeLa-ACE2 cell-based SARS-CoV-2 assay” value (“activity” below) (SARS-CoV-2 [2]) was “demonstrated activity”, the “Nh (Hill) coefficient” value (SARS-CoV-2 [2]) was 4 and the EC50 (SARS-CoV-2 [2]; listed as pipendoxifene) was 8.42 µM. For the same compound, the Average plasma concentration ([3]; Group 2, MD (multiple, 5-day, dose) 250 mg/kg oral, 8.0 hr) was 575 ± 194 ng/mL, the “adverse reactions / clinical signs” value [3] was “no adverse events at doses up to 250mg/kg” and the “adverse reactions / clinical signs” value ([3]; listed as pipendoxifene) was “No adverse reactions were observed”. For the same compound, the “Conc.” value ([3]; lung tissue, individual mice, 50 mg/kg PO single dose, 8.0 hr, 50 mg/kg, 480 min) was 7840 ng/g, the “Mean” value ([3]; lung tissue, 50 mg/kg PO five consecutive days, 8.0 hr, 50 mg/kg, 480 min) was 5613 ± 1602 ng/g and the “Mean” value ([3]; lung tissue, 50 mg/kg PO single dose, 4.0 hr, 50 mg/kg, 240 min) was 8310 ± 630 ng/g. The “Mean” value ([3]; lung tissue, 250 mg/kg PO five consecutive days, 4.0 hr, 250 mg/kg, 240 min) was 39000 ± 15321 ng/g, the “Mean” value ([3]; lung tissue, 250 mg/kg PO single dose, 8.0 hr, 250 mg/kg, 480 min) was 24733 ± 17321 ng/g and the “tmax” value ([3]; lung, 50 mg/kg PO five consecutive days (Group 1, MD)) was 8.0 h. The “MRTlast” value [3, 15] was 7.22 h, the “tmax” value [3, 15] was 4.0 h and the “tmax” value ([3]; lung, 250 mg/kg PO single dose (Group 2, SD)) was 8.0 h. For the same compound, the “plasma t1/2” value ([3]; mouse, in vivo, po) was 2.36 to 3.96 h, the “MRTlast” value [3, 16] was 7.10 h and the “t1/2” value [3, 16] was 2.58 h. For the same compound, the “tmax” value [3, 16] was 6.0 h, the “AUClast (hr·ng/mL) ± SE” value ([3]; plasma, 50 mg/kg PO five consecutive days (Group 1, MD), 50 mg/kg) was 1391 ± 55 ng·h/mL and the “AUC∞” value [3, 16] was 1396 ng·h/mL. The “MRTlast” value [3, 17] was 6.95 h, the “t1/2” value [3, 17] was 2.36 h and the “tmax” value [3, 17] was 2.0 h. The “AUClast (hr·ng/mL) ± SE” value [3, 18] was 1600 ± 115 ng·h/mL, the “Cmax (ng/mL) ± SE” value [3, 18] was 179 ± 21 ng/mL and the “AUC∞” value [3, 17] was 1602 ng·h/mL. The “t1/2” value [3, 19] was 2.52 h, the “tmax” value [3, 19] was 6.0 h and the “AUClast (hr·ng/mL) ± SE” value ([3]; plasma, 250 mg/kg PO five consecutive days (Group 2, MD), 250 mg/kg) was 11628 ± 1191 ng·h/mL. For the same compound, the “AUC∞” value [3, 19] was 11664 ng·h/mL, the “MRTlast” value [3, 20] was 8.86 h and the “t1/2” value [3, 20] was 3.96 h. For the same compound, the “tmax” value [3, 20] was 6.0 h, the “Cmax (ng/mL) ± SE” value ([3]; plasma, 250 mg/kg PO single dose (Group 2, SD), 250 mg/kg) was 1020 ± 693 ng/mL and the “AUC∞” value [3, 20] was 10461 ng·h/mL. For the same compound, the “Mean” value ([3]; plasma, 50 mg/kg PO five consecutive days, 1.0 hr, 50 mg/kg, 60 min) was 56.0 ± 20.7 ng/mL, the “Mean” value ([3]; plasma, 50 mg/kg PO single dose, 2.0 hr, 50 mg/kg, 120 min) was 179 ± 37 ng/mL and the “Mean” value ([3]; plasma, 250 mg/kg PO five consecutive days, 8.0 hr, 250 mg/kg, 480 min) was 575 ± 194 ng/mL. For the same compound, the “Mean” value ([3]; plasma, 250 mg/kg PO single dose, 6.0 hr, 250 mg/kg, 360 min) was 1020 ± 1200 ng/mL, the Cmax [4] was 311 1 42 ng/mL and the “Lung C24h exceeding the IC50 value” [4] was 5.4 fold. The “plasma t1/2” value ([4]; po) was 4.71 to 6.06 h, the “AUClast ± SE” value ([4]; po, 250 mg/kg) was 3515 ± 980 ng·h/mL and the “AUClast ± SE” value ([4]; po, 750 mg/kg) was 5260 ± 1970 ng·h/mL. The “result in COVID-19 Cytopathic Effect (CPE) Assay” value (COVID-19) was “INACTIVE”, the “result in SARS-CoV-2/HeLa-ACE2 HCI assay - % infected cells” value (SARS-CoV-2 [5]) was “INACTIVE” and the concentration at 6 h (in vivo) was 501 ng/mL. The tolerability [6] was “well tolerated with only mild transient adverse events observed at all doses”, the “mean terminal t1/2” value [7] was 15.8 to 27.3 h and the “mean terminal t1/2” value ([7]; listed as pipendoxifene) was 15.8 to 27.3 h. For the same compound, the “result in SARS CoV-2 CPE Cytotoxicity Assay” value [8] was “INACTIVE”, the primary metabolite [9] was “primarily metabolized to an indole glucuronide” and the primary human metabolite [10] was “the same indole glucuronide as found in the preclinical models”. The “t ½” value [11] was 15.8 to 27.3 h, the dose safely tolerated ([12]; human) was “up to 200 mg/daily” and the dose safely tolerated ([12]; mouse) was “at least 20 mg/kg/day”. It also gave an EC90 (SARS-CoV-2 [13]; Severe acute respiratory syndrome coronavirus 2, HeLa-ACE2) of 14.3 µM, an EC10 (SARS-CoV-2 [13]; [21]) of 5.01 µM and an EC50 (SARS-CoV-2 [13]; [21]) of less than 9600 nM. The EC90 (SARS-CoV-2 [13]; Severe acute respiratory syndrome coronavirus 2, HeLa-ACE2, calculated with the Hill equation (Equation I) from nH 4 and EC10) was 15 µM and the EC90 (SARS-CoV-2 [13]; Severe acute respiratory syndrome coronavirus 2, HeLa-ACE2, read-out: EC90 range, range from Equations I and II) was 14.3 to 15 µM.

For O=C(c1ccc(OCCN2CCCCC2)cc1)c1c(-c2ccc(O)cc2)sc2cc(O)ccc12 [raloxifene], the EC50 (SARS-CoV-2 [14]) is listed as 4.13 µM, the SI (Ebola VLP entry; Ebola VLP entry) is listed as greater than 10 and the IC50 (Ebola VLP entry; speculated active compounds, read-out: IC50, block of Ebola VLP entry in vitro) is listed as less than 10 µM.

For COc1cc(Cl)cc(C(C)Nc2cc(N3CCNCC3)ccc2S(C)(=O)=O)c1OC.Cl (stereo not drawn) [PRX-07034], the “activity” value (SARS-CoV-2 [2]) was “demonstrated activity”.

For Nc1ncnc2c1nc(Cl)n2[C@@H]1O[C@@H]2COP(=O)(O)O[C@H]2[C@H]1O [tocladesine], the “activity” value (SARS-CoV-2 [2]) was “demonstrated activity”.

For Cc1c(-c2ccc(O)cc2)n(Cc2ccc(OCCN3CCCCCC3)cc2)c2ccc(O)cc12 [Bazedoxifene, reference compound], the dose safely tolerated ([12]; human) is listed as 20 mg/day and the dose safely tolerated ([12]; rat) is listed as 100 mg/kg/day.

With Cc1c2c(nn1C)CSCc1cc(n(C)n1)CSc1cc(c3ccccc3c1)OCCCc1c(C(=O)O)n(C)c3c-2c(Cl)ccc13 [AZD-5991] the “activity” value (SARS-CoV-2 [2]) was “demonstrated activity”.

For Cc1cccc(/C=N/Nc2cc(N3CCOCC3)nc(OCCc3ccccn3)n2)c1 [apilimod, reference compound], the “increase in EC50 from MOI=1 to MOI=26” value (SARS-CoV-2 [2]) was 3.7 fold and the Emax (SARS-CoV-2 [13]; Severe acute respiratory syndrome coronavirus 2, HeLa-ACE2, read-out: maximal efficacy) was 85 to 90%.

In the case of CCC(CC)COC(=O)[C@H](C)N[P@](=O)(OC[C@H]1O[C@@](C#N)(c2ccc3c(N)ncnn23)[C@H](O)[C@@H]1O)Oc1ccccc1 [Remdesivir, reference compound], the “increase in EC50 from MOI=1 to MOI=26” value (SARS-CoV-2 [2]) is listed as 2.7 fold, the “t ½” value [11] is listed as 1 h and the EC50 (SARS-CoV-2 [13]; [21]) is listed as 130 nM.

In the case of CNCc1ccc(-c2cc(-c3nc(-c4ccc(S(=O)(=O)C(C)C)cc4)cnc3N)on2)cc1 [Berzosertib, reference compound], the “activity” value (SARS-CoV-2 [2]) is reported as “demonstrated activity” and the “Nh (Hill) coefficient” value (SARS-CoV-2 [2]) is reported as 1.485.

With COc1ccc(C[C@H](N)C(=O)N[C@H]2[C@@H](O)[C@H](n3cnc4c(N(C)C)ncnc43)O[C@@H]2CO)cc1 [puromycin, reference compound] the EC50 (SARS-CoV-2 [13]; Severe acute respiratory syndrome coronavirus 2, HeLa-ACE2, […], average ± sem of 5 independent experiments) was 547 ± 27 nM.
